Test results: PMC5903342 (Oxidative Medicine and Cellular Longevity, 2018)
Entries after “also recorded” stand apart in the source; their conditions may differ.

What was measured:
HepG2 cells [1] = test: Flow cytometry cell cycle analysis; assay type: cell-based, Human; settings: 24 h
Experimental: The cells (1 × 10^5) were washed in PBS solution and centrifuged at 400 ×g for 5 min, and after, the cells were suspended in DNA staining solution (0.3% Triton X-100 and 50 μg/mL propidium iodide (PI) in a 43 mM citrate buffer), as previously described. After 45 minutes of treatment with 50 μg/mL ribonuclease A (Sigma, EUA), the PI fluorescence was determined (10,000 events per sample) in a Gallios flow cytometer (Beckman Coulter, USA). Data were analyzed by the Summit v4.3 software. The experiments were done at least three times, and statistical analysis was performed by one-way ANOVA followed by a Tukey's post hoc test.

[2] = test system: Salmonella enterica serovar typhimurium TA1535; test: Antimutagenicity assay (Salmonella/microsome), strain TA1535; assay type: cell-based; settings: TA1535, cotreatment
From the text: Salmonella enterica serovar typhimurium (S. typhimurium) strains TA100, TA1535, TA104, and TA102 from the authors' laboratory stock were used as described by Maron and Ames in the antimutagenicity assay.
We carried out the coexposure protocol of the antimutagenicity assay to investigate the potential of the compound to protect against alkylation-mediated genetic mutation in S. typhimurium TA100, TA102, TA104, and TA1535 strains according to Ajith and Soja. The test proceeded both in the absence and presence of a metabolic activation system (4% S9 mix, Aroclor preinduced, from MOLTOX Inc., USA). DMSO 1% served as the negative control. […] The mixtures were incubated in a shaker at 37°C (preincubation) under light protection. After a total of 60 min of cotreatment, the mixtures were added to and mixed with 2 mL top agar containing 0.05 mmol/L L-histidine and D-biotin for the S. typhimurium strains. Each of these was then spread on a minimal glucose agar (1.5% agar, Vogel-Bonner medium E, containing 2% glucose) plate. After the top agar solidified, the plates were incubated at 37°C for 60–72 h. Each tester strain was assayed in triplicate and repeated at least twice, and the number of revertant colonies was counted for each tester strain and treatment group. The counts of revertant colonies were obtained to build a dose-response curve and calculate the percentage of reduction.

[3] = test system: S. enterica serovar typhimurium-tested strains; test: Cytotoxic effect in bacterial strains (CFU survival); assay type: cell-based, Salmonella enterica serovar typhimurium; settings: presence and absence of exogenous metabolic activation (data not shown)
Experimental: To determine the cytotoxic effect, after 60 min incubation, the assay mixtures were diluted in 0.9% NaCl (w/v) to obtain a suspension containing 2 × 10^2 cells/mL. A suitable aliquot (100 μL) of this suspension was plated on nutrient agar (0.8% bacto nutrient broth (Difco), 0.5% NaCl, and 1.5% agar). The plates were then incubated at 37°C for 24 h, and the colony-forming units (CFU) were counted to obtain the percentage of survival. All the experiments were done in triplicate and were repeated at least twice.

HepG2 cells [4] = test: Cytoprotective assay of HepG2 cells (WST-1, coexposure with alkylating agent at LC50); assay type: cell-based, Human; settings: 24 h coexposure with 20 μM MMS, AVA at 1.0 and 10.0 μM
Experimental: After 24 h of coexposure, the culture medium was replaced by a 90 μL fresh culture medium and 10 μL WST-1 and incubated at 37°C and 5% CO2 for 2 h. The absorbance was then measured following the protocol as described before. The survival rates were determined in comparison to the negative control.

[5] = DPPH free radical scavenging assay; assay type: biochemical; settings: absorbance at 517 nm
Experimental: The free radical scavenging activity was measured by following microplate procedures as previously described. One hundred microliters of the sample dilutions with five concentration levels (varying from 0 to 2000 μM in DMSO) was added to two identical groups of wells in a 96-well microplate. The same volume of 0.1 mM DPPH-methanol solution was added to each well of one group (samples), and methanol ([…]) was added to the other group (blanks). The control was prepared by mixing the DPPH-methanol solution with the sample solvent or butylated hydroxytoluene (BHT). The solutions were mixed thoroughly, covered, and allowed to react in the dark at room temperature for 40 min. The absorbance was measured at 517 nm using a microplate reader (Quant, BioTek Instruments Inc.), and the scavenging activity was calculated from the absorbance values according to the following equation: […]. The antioxidant properties of the samples were expressed as half the maximal effective concentrations (EC50) obtained by interpolation from the linear regression analysis. BHT was used as the positive control.

[6] = +S9, CPA (150 μM), atorvastatin 20 μM
[7] = +S9, CPA (150 μM), atorvastatin 100 μM
[8] = +S9, CPA (150 μM), atorvastatin 200 μM
[9] = +S9, CPA (150 μM), atorvastatin 1000 μM
[10] = −S9, MMS (100 μM), atorvastatin 20 μM
[11] = −S9, MMS (100 μM), atorvastatin 100 μM
[12] = −S9, MMS (100 μM), atorvastatin 200 μM
[13] = −S9, MMS (100 μM), atorvastatin 1000 μM

CC(C)c1c(C(=O)Nc2ccccc2)c(-c2ccccc2)c(-c2ccc(F)cc2)n1CC[C@@H](O)C[C@@H](O)CC(=O)O [AVA, atorvastatin]
Cell cycle pattern (HepG2 cells [1]; 25 μM AVA alone, in comparison to the control): did not induce alterations | Effect on G1, S and G2 phases (HepG2 cells [1]; AVA and CPA cotreatment): did not affect | Effect on G1 and S phases (HepG2 cells [1]; AVA and MMS cotreatment): did not affect | Number of cells in the G2 phase (HepG2 cells [1]; AVA and MMS cotreatment): restored | sub-G1 percentage of cells (HepG2 cells [1]; cotreatment 20 μM MMS + AVA 1 μM): 12% | sub-G1 percentage of cells (HepG2 cells [1]; cotreatment 20 μM MMS + AVA 10 μM): 4% | sub-G1 percentage of cells (HepG2 cells [1]; cotreatment 20 μM MMS + AVA 25 μM): 2% | polyploid subpopulation (HepG2 cells [1]; cotreatment AVA + 20 μM MMS): 3-4% | sub-G1 percentage of cells (HepG2 cells [1]; cotreatment AVA + CPA, no dose dependence): 3-4% | Cell cycle pattern (HepG2 cells [1]; cotreatment with 25 μM AVA in MMS-exposed (20 μM) cells): restored the cell cycle pattern | % reduction [2, 6]: 9.44% | His+ (revertant colonies) [2, 6]: 53 ± 3 | % reduction [2, 7]: 11.11% | His+ (revertant colonies) [2, 7]: 52 ± 7 | % reduction [2, 8]: 30.6% | His+ (revertant colonies) [2, 8]: 45 ± 4 | % reduction ([2]; +S9, CPA (150 μM), atorvastatin 200 μM, listed as Atorvastatin): 30.56^∗ % | % reduction [2, 9]: 42.2% | His+ (revertant colonies) [2, 9]: 41 ± 8 | % reduction ([2]; +S9, CPA (150 μM), atorvastatin 1000 μM, listed as Atorvastatin): 42.22^∗ % | % reduction [2, 10]: 45.65^∗ % | His+ (revertant colonies) [2, 10]: 50 ± 4 | % reduction [2, 11]: 67.39^∗ % | His+ (revertant colonies) [2, 11]: 40 ± 5 | % reduction [2, 12]: 86.95^∗ % | His+ (revertant colonies) [2, 12]: 31 ± 2 | % reduction [2, 13]: 91.30^∗ % | His+ (revertant colonies) [2, 13]: 29 ± 3 | Cytotoxic effect to bacterial strains [3]: no cytotoxic effect | Cytoprotective effect (survival of HepG2 coexposed to MMS) (HepG2 cells [4]): significant protection; also recorded: significant cytoprotective effect | EC50 [5]: 274 ± 3 µM
